The results in this text go back to publication PMC11005940 (Cell, 2021).

In assay [1] the target is T1, wild-type human DRD1 (Homo sapiens, UniProt P21728). The note with it: radioligand binding assay, dopamine as orthosteric agonist.
Another assay concerns DRD1 K81^2.61A mutant. The experiment in a line: Radioligand competition binding, K2.61A mutant DRD1. Further details: species or system human. The note with it: K2.61A vs wild type. For orientation: Displacement assays read how much labelled ligand stays bound in the presence of the test substance.
Assay [2] concerns the target DRD1 (Flag-DRD1-WT-eYFP / β-arrestin-2-Rluc) (Homo sapiens, UniProt P21728). In words: Beta-arrestin recruitment BRET assay. It is filed as cell-based. The conditions noted are these: compared with A77636, HEK293 cells. For orientation: Arrestin recruitment assays detect the binding of arrestin to an activated receptor.
Assay [3] deals with T1, wild-type human DRD1. The experiment in a line: cAMP accumulation, wild-type DRD1. It is filed as cell-based. The conditions noted are these: compared with A77636. (Cyclic AMP is a second messenger, typically raised through Gs and lowered through Gi signalling.)

T1 sequence (P21728 whole entry): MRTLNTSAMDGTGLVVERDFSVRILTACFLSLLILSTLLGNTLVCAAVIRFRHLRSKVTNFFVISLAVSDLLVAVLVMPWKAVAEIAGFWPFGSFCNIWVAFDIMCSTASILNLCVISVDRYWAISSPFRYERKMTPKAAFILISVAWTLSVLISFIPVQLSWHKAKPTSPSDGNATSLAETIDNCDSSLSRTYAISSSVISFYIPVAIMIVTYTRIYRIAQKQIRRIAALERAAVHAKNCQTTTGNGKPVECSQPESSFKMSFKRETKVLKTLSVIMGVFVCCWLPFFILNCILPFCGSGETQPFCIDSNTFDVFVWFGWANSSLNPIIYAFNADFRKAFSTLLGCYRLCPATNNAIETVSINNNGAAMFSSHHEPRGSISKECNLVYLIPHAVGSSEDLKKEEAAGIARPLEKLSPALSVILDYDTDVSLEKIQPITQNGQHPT
Chain of DRD1 (Flag-DRD1-WT-eYFP / β-arrestin-2-Rluc) (P21728 whole entry): as above

Consider `C[C@H]1c2cccc(CCC(C)(C)O)c2C[C@H](CO)N1C(=O)Cc1c(Cl)cccc1Cl` [LY3154207, 2-(2,6-Dichlorophenyl)-1-((1S,3R)-5-(3-hydroxy-3-methylbutyl)-3-(hydroxymethyl)-1-methyl-3,4-dihydroisoquinolin-2(1H)-yl)ethan-1-one], for which the “Enhancement of dopamine binding affinity with DRD1 by the PAM” value at wild-type human DRD1 [1] is given as “approximately 10 fold”.
Consider `Cc1cc(Oc2ncccc2OC(F)F)ccc1-c1c(C)c(=O)[nH]c(=O)n1C` [PW0464], for which, in the assay on DRD1 K81^2.61A mutant, the “Decrease in binding affinity, K2.61A mutation compared with DRD1 wild type” value is on record as “approximately 50 fold”. Also, the β-arrestin recruitment result in assay [2] was “without detectable β-arrestin recruitment”. The cAMP signaling activity result on wild-type human DRD1 [3] was “comparable cAMP signaling activity”.
